Reference: patent US20050054555A1, “Kahalalide compounds for use in cancer therapy” (priority 2001, published 2005)

What was measured:
[1] = tested on: advanced or metastatic androgen refractory prostate cancer
Description: OBJECTIVE: In the present phase I clinical and pharmacokinetic (PK) study the toxicity profiles PK and anti-tumour activity of KF are investigated. METHODS: KF is administered as an intravenous infusion over one hour, during five consecutive days every three weeks in patients with advanced or metastatic androgen refractory prostate cancer. On the basis of the MTD values defined in mice, a starting dose of 20 μg/m2/day was selected, which is equivalent to a total dose of 100 μg/m2. PK of KF were determined in plasma during the first course. Bioanalysis of KF was performed by LC-MS/MS. LDH, AF and especially PSA levels of each patient were also evaluated during the study to determine the activity of KF. […] One patient per level was entered at 20, 40, 80 and 160 μg/m2/day. […] The first patient of this study was re-entered at this dose level.

[2] = tested on: prostate cancer
[3] = tested on: patients with advanced or metastatic prostate cancer; test: Phase I trial KHF-A-001-00: safety of kahalalide F daily x 5 over 1 hour infusion every 21 days; format: in vivo, human
Description: The rate of subject entry and escalation to the next dose level will depend upon assessment of the safety profile of patients entered at each dose level. Toxicity will be evaluated and graded according to the Common Toxicity Criteria, version 2.0.
In order to minimize the number of patients treated at the subtoxic dose levels, a single patient will be treated per dose level with 100% dose escalation in the absence of any toxicity G2 (excluding alopecia) during their first course of treatment. After the occurrence of grade 2 toxicity (excluding asthenia, alopecia, nausea and vomiting or anemia), the dose level is expanded to three patients with only 50% incremental increase in dosage in advancing to the next dose level. For the occurrence of grade 3 non-hematological toxic effects the dose level should be expanded up to six patients. This second cohort of 3 patients will be included consecutively. If the first or second patient develops dose limiting toxicities no further patients will be treated at this dose level, it will be defined as MTD and the accrual will begin at a lower dose level. If only one DLT occurs at this dose level another 3 patients will be included at the next dose level with an increase of 25% only.
There is no intrapatient dose escalation, only de-escalation. If the toxicity is grade 3 or worse in a course of chemotherapy, then the dose is reduced one level for the next course.
The maximum tolerated dose (MTD) is defined as the dose at which at least 2 out of 3 or more than 3 patients experience DLT. However, it is possible that additional patients may experience DLT due to the timing of patient enrollment into that dose level.
Dose limiting toxicities (DLTs) are defined as follows: […]
Grade IV Neutropenia lasting for >5 days or with a temperature >38.5.
Grade IV thrombocytopenia.
Any other grade III or IV non hematological toxicity, excluding nausea, emesis and hypersensitivity reactions.
Grade III or IV liver toxicity if not reversible by day 21.
These toxicities are only considered DLTs if they happen during cycle 1. […]
A dose of 20 mcg/m2 was considered a safe starting dose on the basis of acute toxicity studies in animals. The trial was designed as an accelerated dose escalation (pharmacokinetically guided).

[4] = 19 patients, daily x5 every 21 days, all dose levels
[5] = 20 patients, daily x5 every 21 days, all dose levels

C/C=C1\NC(=O)[C@H](Cc2ccccc2)NC(=O)[C@@H](C(C)C)NC(=O)[C@@H](C(C)CC)NC(=O)[C@H](NC(=O)C(NC(=O)[C@H](CCCN)NC(=O)[C@H]2CCCN2C(=O)[C@H](NC(=O)[C@@H](NC(=O)[C@@H](NC(=O)[C@H](NC(=O)CCCC(C)C)C(C)C)C(C)O)C(C)C)C(C)C)C(C)CC)C(C)OC(=O)[C@H](C(C)C)NC1=O (single isomer, unassigned) [kahalalide F]
decrease in PSA level ([1]; one patient, associated with pain relief, preliminary report): > 50%
response evaluated by PSA, one patient ([1]; patient received 8 cycles, clinical improvement): partial response
PSA change in two additional patients ([1]; preliminary report): minor PSA reductions
concentration from which active in the clonogenic tumour assay [2]: ≥ 15 ng/mL
only drug related toxicity to date ([3]; 320 μg/m2/day, rapidly reversible, preliminary report, 7 patients): CTC grade 3 ASAT
Hematologic toxicity (worst per patient): Hemoglobin, Grade 1 [3, 4]: 63.2%
Hematologic toxicity (worst per patient): Hemoglobin, Grade 2 [3, 4]: 26.3%
Hematologic toxicity (worst per patient): Hemoglobin, Grade 3 [3, 4]: 0%
Hematologic toxicity (worst per patient): Hemoglobin, Grade 4 [3, 4]: 0%
Hematologic toxicity (worst per patient): Leukocytes, Grade 1 [3, 4]: 10.5%
Hematologic toxicity (worst per patient): Leukocytes, Grade 2 [3, 4]: 0%
Hematologic toxicity (worst per patient): Leukocytes, Grade 3 [3, 4]: 0%
Hematologic toxicity (worst per patient): Leukocytes, Grade 4 [3, 4]: 0%
Hematologic toxicity (worst per patient): Neutrophils, Grade 1 [3, 4]: 5%
Hematologic toxicity (worst per patient): Neutrophils, Grade 2 [3, 4]: 5%
Hematologic toxicity (worst per patient): Neutrophils, Grade 3 [3, 4]: 0%
Hematologic toxicity (worst per patient): Neutrophils, Grade 4 [3, 4]: 0%
Hematologic toxicity (worst per patient): Platelets, Grade 1 [3, 4]: 21.1%
Hematologic toxicity (worst per patient): Platelets, Grade 2 [3, 4]: 0%
Hematologic toxicity (worst per patient): Platelets, Grade 3 [3, 4]: 0%
Hematologic toxicity (worst per patient): Platelets, Grade 4 [3, 4]: 0%
Most frequently reported non-hematologic toxicities: Diarrhea, Grade 1 [3, 5]: 10
Most frequently reported non-hematologic toxicities: Diarrhea, Grade 2 [3, 5]: 5
Most frequently reported non-hematologic toxicities: Diarrhea, Grade 3 [3, 5]: 0
Most frequently reported non-hematologic toxicities: Diarrhea, Grade 4 [3, 5]: 0
Most frequently reported non-hematologic toxicities: Fatigue, Grade 1 [3, 5]: 35
Most frequently reported non-hematologic toxicities: Fatigue, Grade 2 [3, 5]: 10
Most frequently reported non-hematologic toxicities: Fatigue, Grade 3 [3, 5]: 25
Most frequently reported non-hematologic toxicities: Fatigue, Grade 4 [3, 5]: 0
Most frequently reported non-hematologic toxicities: Hypersensitivity, Grade 1 [3, 5]: 20
Most frequently reported non-hematologic toxicities: Hypersensitivity, Grade 2 [3, 5]: 5
Most frequently reported non-hematologic toxicities: Hypersensitivity, Grade 3 [3, 5]: 0
Most frequently reported non-hematologic toxicities: Hypersensitivity, Grade 4 [3, 5]: 0
Most frequently reported non-hematologic toxicities: Inject-site reaction, Grade 1 [3, 5]: 10
Most frequently reported non-hematologic toxicities: Inject-site reaction, Grade 2 [3, 5]: 20
Most frequently reported non-hematologic toxicities: Inject-site reaction, Grade 3 [3, 5]: 0
Most frequently reported non-hematologic toxicities: Inject-site reaction, Grade 4 [3, 5]: 0
Most frequently reported non-hematologic toxicities: Nausea, Grade 1 [3, 5]: 15
Most frequently reported non-hematologic toxicities: Nausea, Grade 2 [3, 5]: 10
Most frequently reported non-hematologic toxicities: Nausea, Grade 3 [3, 5]: 0
Most frequently reported non-hematologic toxicities: Nausea, Grade 4 [3, 5]: 0
Most frequently reported non-hematologic toxicities: Periph-sens neuro, Grade 1 [3, 5]: 20
Most frequently reported non-hematologic toxicities: Periph-sens neuro, Grade 2 [3, 5]: 0
Most frequently reported non-hematologic toxicities: Periph-sens neuro, Grade 3 [3, 5]: 5
Most frequently reported non-hematologic toxicities: Periph-sens neuro, Grade 4 [3, 5]: 0
Most frequently reported non-hematologic toxicities: Vomiting, Grade 1 [3, 5]: 15
Most frequently reported non-hematologic toxicities: Vomiting, Grade 2 [3, 5]: 10
Most frequently reported non-hematologic toxicities: Vomiting, Grade 3 [3, 5]: 0
Most frequently reported non-hematologic toxicities: Vomiting, Grade 4 [3, 5]: 0
Non-hematologic toxicity, lab abnormalities per patient: Albumin, Grade 1 [3, 5]: 30%
Non-hematologic toxicity, lab abnormalities per patient: Albumin, Grade 2 [3, 5]: 10%
Non-hematologic toxicity, lab abnormalities per patient: Albumin, Grade 3 [3, 5]: 5%
Non-hematologic toxicity, lab abnormalities per patient: Albumin, Grade 4 [3, 5]: 0%
Non-hematologic toxicity, lab abnormalities per patient: Bilirubin, Grade 1 [3, 5]: 10%
Non-hematologic toxicity, lab abnormalities per patient: Bilirubin, Grade 2 [3, 5]: 0%
Non-hematologic toxicity, lab abnormalities per patient: Bilirubin, Grade 3 [3, 5]: 0%
Non-hematologic toxicity, lab abnormalities per patient: Bilirubin, Grade 4 [3, 5]: 0%
